Measured values published in ChEMBL document CHEMBL5465560, “Selectivity Literature for EUbOPEN Chemogenomic Library” (2024).

What was measured:
[1] = molecular target: T1, Mitogen-activated protein kinase kinase kinase kinase 2 (Homo sapiens) (UniProt Q12851); experiment: Selectivity interaction (KinomeScan (DiscoverX)) EUB0000229b MAP4K2; settings: at 10 µM
T1 sequence (whole entry): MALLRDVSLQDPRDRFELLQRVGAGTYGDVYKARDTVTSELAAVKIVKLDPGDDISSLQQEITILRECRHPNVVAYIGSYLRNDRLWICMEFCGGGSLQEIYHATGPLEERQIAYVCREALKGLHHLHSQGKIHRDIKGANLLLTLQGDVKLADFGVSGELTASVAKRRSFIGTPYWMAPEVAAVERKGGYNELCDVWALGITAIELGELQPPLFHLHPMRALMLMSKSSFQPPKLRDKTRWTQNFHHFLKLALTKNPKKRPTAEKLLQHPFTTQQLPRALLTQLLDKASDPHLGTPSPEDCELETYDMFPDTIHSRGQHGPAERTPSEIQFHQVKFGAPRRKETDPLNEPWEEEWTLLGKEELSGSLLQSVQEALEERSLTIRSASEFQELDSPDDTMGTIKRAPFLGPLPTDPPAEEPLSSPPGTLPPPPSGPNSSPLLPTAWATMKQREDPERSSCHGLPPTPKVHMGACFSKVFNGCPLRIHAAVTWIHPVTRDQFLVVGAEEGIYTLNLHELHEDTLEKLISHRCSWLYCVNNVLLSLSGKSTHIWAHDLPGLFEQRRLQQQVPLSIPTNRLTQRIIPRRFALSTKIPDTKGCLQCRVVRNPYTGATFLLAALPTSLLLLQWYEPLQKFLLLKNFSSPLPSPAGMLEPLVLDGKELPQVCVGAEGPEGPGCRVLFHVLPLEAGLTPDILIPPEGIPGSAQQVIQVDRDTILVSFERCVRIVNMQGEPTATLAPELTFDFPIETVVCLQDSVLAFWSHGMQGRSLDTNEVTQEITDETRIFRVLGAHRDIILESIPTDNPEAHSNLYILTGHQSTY

[2] = molecular target: T2, Cyclin-G-associated kinase (Homo sapiens) (UniProt O14976); experiment: Selectivity interaction (KinomeScan (DiscoverX)) EUB0001079a GAK; settings: at 1 µM
T2 sequence (whole entry): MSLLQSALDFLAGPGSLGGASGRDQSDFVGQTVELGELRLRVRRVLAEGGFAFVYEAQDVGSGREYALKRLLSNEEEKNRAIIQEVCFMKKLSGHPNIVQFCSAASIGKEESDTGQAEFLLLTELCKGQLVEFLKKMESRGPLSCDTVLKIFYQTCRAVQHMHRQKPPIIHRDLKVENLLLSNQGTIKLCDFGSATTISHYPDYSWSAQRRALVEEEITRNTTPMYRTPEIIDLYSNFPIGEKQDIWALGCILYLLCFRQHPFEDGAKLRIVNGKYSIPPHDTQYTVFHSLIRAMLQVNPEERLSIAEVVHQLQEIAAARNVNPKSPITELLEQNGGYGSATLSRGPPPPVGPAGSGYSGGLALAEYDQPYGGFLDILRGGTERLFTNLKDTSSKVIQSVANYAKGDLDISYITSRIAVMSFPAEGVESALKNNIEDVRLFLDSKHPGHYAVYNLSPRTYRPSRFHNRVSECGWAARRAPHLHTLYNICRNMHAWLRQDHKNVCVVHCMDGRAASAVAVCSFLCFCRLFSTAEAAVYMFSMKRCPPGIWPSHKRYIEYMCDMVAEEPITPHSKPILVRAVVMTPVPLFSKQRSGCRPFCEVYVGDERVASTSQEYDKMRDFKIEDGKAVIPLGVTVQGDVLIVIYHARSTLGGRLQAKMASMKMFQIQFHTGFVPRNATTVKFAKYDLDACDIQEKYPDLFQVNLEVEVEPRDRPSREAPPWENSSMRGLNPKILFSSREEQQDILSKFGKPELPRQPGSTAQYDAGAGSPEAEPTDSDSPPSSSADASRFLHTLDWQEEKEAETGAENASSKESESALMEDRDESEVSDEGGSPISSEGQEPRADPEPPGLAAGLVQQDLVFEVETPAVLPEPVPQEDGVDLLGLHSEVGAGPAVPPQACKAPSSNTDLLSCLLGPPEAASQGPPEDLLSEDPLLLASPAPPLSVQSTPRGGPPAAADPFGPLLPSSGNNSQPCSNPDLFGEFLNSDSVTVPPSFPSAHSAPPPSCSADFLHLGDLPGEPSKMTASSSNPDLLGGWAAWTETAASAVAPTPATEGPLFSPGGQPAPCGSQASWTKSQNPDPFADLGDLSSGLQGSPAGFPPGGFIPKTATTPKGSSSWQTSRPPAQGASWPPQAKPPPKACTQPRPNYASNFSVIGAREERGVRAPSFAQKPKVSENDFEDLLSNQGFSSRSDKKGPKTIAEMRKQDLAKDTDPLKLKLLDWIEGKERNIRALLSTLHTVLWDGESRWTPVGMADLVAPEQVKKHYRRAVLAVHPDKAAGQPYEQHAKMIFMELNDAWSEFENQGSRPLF

[3] = molecular target: Activin receptor type-2B (Homo sapiens) (UniProt Q13705); settings: at 10 µM
[4] = molecular target: RAF proto-oncogene serine/threonine-protein kinase (Homo sapiens) (UniProt P04049); settings: at 10 µM
RAF proto-oncogene serine/threonine-protein kinase (Homo sapiens), sequence (P04049 whole entry): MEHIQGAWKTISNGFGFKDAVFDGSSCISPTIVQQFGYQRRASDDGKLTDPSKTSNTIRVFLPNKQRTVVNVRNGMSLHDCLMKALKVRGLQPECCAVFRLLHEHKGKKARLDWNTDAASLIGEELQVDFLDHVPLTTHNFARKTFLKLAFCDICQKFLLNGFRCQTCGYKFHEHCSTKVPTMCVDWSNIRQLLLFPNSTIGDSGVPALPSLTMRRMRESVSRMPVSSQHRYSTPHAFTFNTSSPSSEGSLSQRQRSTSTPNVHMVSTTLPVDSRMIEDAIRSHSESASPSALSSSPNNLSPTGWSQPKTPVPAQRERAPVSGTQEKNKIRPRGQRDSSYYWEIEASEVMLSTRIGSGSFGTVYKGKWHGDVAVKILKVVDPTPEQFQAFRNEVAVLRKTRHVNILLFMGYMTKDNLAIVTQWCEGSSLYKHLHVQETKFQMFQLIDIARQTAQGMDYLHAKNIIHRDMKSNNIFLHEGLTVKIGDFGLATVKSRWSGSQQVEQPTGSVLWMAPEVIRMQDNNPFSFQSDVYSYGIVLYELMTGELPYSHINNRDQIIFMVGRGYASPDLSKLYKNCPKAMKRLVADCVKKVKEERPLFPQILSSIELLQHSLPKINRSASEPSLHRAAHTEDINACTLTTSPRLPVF

Activin receptor type-2B (Homo sapiens), sequence (Q13705 whole entry): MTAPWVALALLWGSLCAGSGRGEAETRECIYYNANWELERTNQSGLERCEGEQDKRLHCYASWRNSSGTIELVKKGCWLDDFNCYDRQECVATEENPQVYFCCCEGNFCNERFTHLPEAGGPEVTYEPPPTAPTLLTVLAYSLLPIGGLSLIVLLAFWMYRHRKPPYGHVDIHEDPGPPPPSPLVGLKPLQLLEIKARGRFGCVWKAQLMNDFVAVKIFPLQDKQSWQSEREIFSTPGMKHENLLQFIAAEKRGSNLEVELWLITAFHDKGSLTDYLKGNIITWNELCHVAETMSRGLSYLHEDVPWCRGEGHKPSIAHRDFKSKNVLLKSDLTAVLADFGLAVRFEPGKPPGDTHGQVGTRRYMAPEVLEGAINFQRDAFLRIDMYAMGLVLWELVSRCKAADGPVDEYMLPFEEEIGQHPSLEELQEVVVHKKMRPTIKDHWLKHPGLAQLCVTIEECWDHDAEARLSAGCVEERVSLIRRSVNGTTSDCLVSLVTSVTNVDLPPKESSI

COc1cc(N(C)c2ccnc3ccc(C(F)(F)F)cc23)cc(OC)c1OC
% binding [1]: 65%

Nc1cnc(N2CCc3cc(S(=O)(=O)Nc4c(F)cc(Cl)cc4F)cc(N4CCCC4=O)c32)nc1 [TP-020n]
% of control [2]: 100%

CCN(CC)CCCCNc1ncc2cc(-c3cc(OC)cc(OC)c3)c(NC(=O)NC(C)(C)C)nc2n1
% of control [3]: 100%
% of control [4]: 100%
